Results from US5380651A, “Method of determining odorant compounds and antagonists of odorants using a primary culture of olfactory neurons” (The Johns Hopkins University, priority 1993, dated 1995).
“Also recorded” adds a separate entry of the source.

How the values were obtained:
[1] = system: Primary olfactory neurons; test: cyclic AMP levels (RIA) in primary olfactory neurons exposed to odorant; type: cell-based, rat; details: 10 uM IBMP
From the text: Olfactory tissue from neonatal rats was collected, minced, dissociated in enzymes and plated on chamber slides pretreated with laminin as described below.
Approximately 3 litters or 28-32 pups were used per prep. The 2-3 day old rat pups were sacrificed by decapitation, and olfactory tissue dissected and immediately placed in modified Eagle's medium (MEM) containing 4.8 g/l of HEPES buffer, designated MEM-AIR. The turbinates were transferred twice through fresh MEM-AIR to minimize contamination. Tissue was then centrifuged at 700×g for 7 min. After the supernatant was decanted, the tissue was minced to achieve tissue fragments of approximately 1 mm in size, resuspended in MEM-AIR and centrifuged at 700×g for 7 min. Tissue was then placed in 30 ml of MEM-AIR containing 1% (w/v) BSA, RIA grade (Sigma, St. Louis, Mo.), 1 mg/ml hyaluronidase (Sigma), 50 ug/ml DNAse (Sigma), 1 mg/ml collagenase (Worthington Biochemicals, Freehold, N.J.), and 5 mg/ml dispase (Boehringer-Mannheim Biochemicals, Indianapolis, Ind.), and incubated with agitation for 1 hr at 37° C. At the end of incubation, the cell suspension was triturated 10 times with a 10 ml plastic piper and passed through a 150 micron wire mesh. The cell suspension was then centrifuged at 500×g for 5 min. […]

NG-108 cells = test: cyclic AMP levels (RIA) in NG-108 cells exposed to odorant; type: cell-based; details: similar treatment
[2] = system: olfactory neurons (primary cultures); test: effect of substrate matrix substances on morphology and plating efficiency of olfactory neurons; type: cell-based, rat; details: for plating efficiency / process (neurite) outgrowth: coated slides, phase contrast and anti-vimentin immunofluorescence
Protocol: To determine the role of substrate matrix substances on plating efficiency and on cellular selection, a number of different substrates were tested.
Two chamber slides were pretreated in a number of ways. For laminin coating, 1 ml of MDV containing 25 ug/ml laminin was plated onto glass two-chamber slides overnight at 37° C.; before use, the slides were rinsed with MDV. For fibronectin, slides were treated with a solution containing 1 ml of MDV containing 20 ug/ml fibronectin (Collaborative Research), incubated overnight at 37° C., and rinsed with MDV prior to use. For polyornithine (PORN, Sigma Chemicals), a solution at a concentration of 1 mg/ml PORN in deionized distilled water was added to slides, incubated 1 hr at 37° C., rinsed twice with deionized distilled water, and rinsed once with MDV prior to use. When laminin was used on PORN-treated slides, slides were treated with PORN and then laminin in the usual manner. Coating of slides with poly-D-lysine was performed analogous to treatment with polyornithine. Heparan sulfate was diluted in MDV to a concentration of 10 ug/ml and 1 ml was placed on a slide, maintained overnight at 37° C., and rinsed with deionized distilled water prior to use. Collagen (Gibco) or collagen IV (Collaborative Research) was prepared as a 50 ug/ml solution in deionized distilled water and 1 ml of this solution utilized per slide. In the case of collagen, the solution was allowed to air dry. Collagen IV was maintained overnight at room temperature, aspirated, air dried and then rinsed twice with deionized distilled water prior to use. When laminin was used with collagen IV, collagen IV was prepared as described, and laminin was subsequently added in the usual manner. Matrigel (Collaborative Research) was utilized according to manufacturer's instructions.
Primary cultures were prepared as describe above and plated onto a number of different substrates and examined by phase contrast as well as immunofluorescence with antivimentin antisera (FIG. 6).
Matrigel was also examined as a substrate (FIG. 7).

[3] = system: olfactory neurons (primary cultures); test: effect of NGF on olfactory neuron survival and neurite extension; type: cell-based, rat
Protocol: Approximately 3 litters or 28-32 pups were used per prep. The 2-3 day old rat pups were sacrificed by decapitation, and olfactory tissue dissected and immediately placed in modified Eagle's medium (MEM) containing 4.8 g/l of HEPES buffer, designated MEM-AIR. The turbinates were transferred twice through fresh MEM-AIR to minimize contamination. Tissue was then centrifuged at 700×g for 7 min. After the supernatant was decanted, the tissue was minced to achieve tissue fragments of approximately 1 mm in size, resuspended in MEM-AIR and centrifuged at 700×g for 7 min. Tissue was then placed in 30 ml of MEM-AIR containing 1% (w/v) BSA, RIA grade (Sigma, St. Louis, Mo.), 1 mg/ml hyaluronidase (Sigma), 50 ug/ml DNAse (Sigma), 1 mg/ml collagenase (Worthington Biochemicals, Freehold, N.J.), and 5 mg/ml dispase (Boehringer-Mannheim Biochemicals, Indianapolis, Ind.), and incubated with agitation for 1 hr at 37° C. At the end of incubation, the cell suspension was triturated 10 times with a 10 ml plastic piper and passed through a 150 micron wire mesh. The cell suspension was then centrifuged at 500×g for 5 min. The supernatant was aspirated and the cell pellet resuspended in plating medium composed of modified Eagle's medium containing D-valine (MDV, Gibco, Grand Island, N.Y.) containing 15% (v/v) dialyzed fetal calf serum (dFCS, Gibco), 5% (v/v) NU serum (Collaborative Research, Bedford, Mass.), 10 uM cytosine arabinoside (ara C) and 25 ng/ml nerve growth factor (NGF, Collaborative Research). After resuspension, cells were successively filtered through 50 micron and 10 micron nylon mesh filters (Small Parts, Miami, Fla.), to remove any remaining undigested clumps of cells and epithelial cells. Cells were plated at a density of 1×10^6 cells per cm^2 into tissue culture dish (Falcon, Lincoln Park, N.J.) or Labtek tissue culture slides (Nunc, Naperville, Ill.) coated with MDV containing laminin at 25 ug/ml (Collaborative Research). Cultures were placed in a humidified 37° C. incubator receiving 5% CO2. […]

[4] = without NGF vs 25 ng/ml NGF, by 3 days in culture

With COc1nccnc1CC(C)C [IBMP, 2-isobutyl-3-methoxypyrazine] the “change of intracellular cyclic AMP levels” value [1] was “rapid, transient rise in intracellular cyclic AMP levels” and the “change of cyclic AMP levels” value (NG-108 cells) was “does not alter cyclic AMP levels”.

collagen was tested, and the “plating efficiency” value [2] was “somewhat better plating efficiency than poly-D-lysine, polyornithine or heparan-sulfate” and the “process (neurite) outgrowth” value [2] was “process outgrowth is still stunted”.

In the case of fibronectin, the “process (neurite) outgrowth” value [2] is reported as “the processes are shorter”.

For laminin, the “plating efficiency” value [2] was “optimal plating efficiency” and the “neurite extension and aggregation of cells” value ([2]; duplicate cell suspensions, laminin vs matrigel) was “cells extend neurites in a random fashion, with no tendency to reaggregate”.

B1: NGF: nerve growth factor (NGF, Collaborative Research) (protein, UniProt P01139 122-241, looked up)
Beta-nerve growth factor: SSTHPVFHMGEFSVCDSVSVWVGDKTTATDIKGKEVTVLAEVNINNSVFRQYFFETKCRASNPVESGCRGIDSKHWNSYCTTTHTFVKALTTDEKQAAWRFIRIDTACVCVLSRKATRRG
modifications: Beta-nerve growth factor
In the case of B1, the “role in olfactory neuronal survival and neurite extension” value ([3]; 25 ng/ml NGF in medium) is reported as “necessary for survival of olfactory neurons; also recorded: affects both olfactory neuronal survival and neurite extension in culture”, the “decrease of cell viability in cells maintained without NGF” value [3, 4] is reported as “approximately 85%” and the “process extension in cells maintained without NGF” value [3, 4] is reported as “lose process extension”.
